# Test results: a melting point compilation (Tetko et al.; mined from patent text by program, amines drawn as free bases though some values may be those of a salt)
row,melting point [°C],Compound
1,191 to 193,COCCc1nc2c(N)nc3c(c2n1CCCCNS(=O)(=O)c1ccc(F)cc1)CCCC3
2,105 to 107,CCN1c2ncc(C3(c4ccccc4)CO3)cc2C(=O)N(C)c2ccc(Cl)nc21 (stereo not given)
3,171 to 173,CCCC(=O)Nc1cccc2c1C(=O)N(C1CCC(=O)NC1=O)C2=O (stereo not given)
4,265,COCCOC(=O)C1=C(C)Nc2cc[nH]c(=O)c2C1c1ccccc1[N+](=O)[O-] (stereo not given)
5,169 to 172,Cc1nc(NCc2ccccc2)sc1C(=O)NCc1ccccc1
6,228,O=C(NC(Cc1ccc(OCc2ccccc2)cc1)C(=O)O)c1cn2cc(-c3ccccc3Cl)ccc2n1 (stereo not given)
7,112 to 113,CC(=NN(C)c1ccc(C(F)(F)F)cc1)C(=O)NCc1ccc(Cl)cc1
8,206,O=P(O)(O)C1CC(c2ccc(F)cc2)=NO1 (stereo not given)
9,68 to 71,O=C(NC(=O)N(SC(Cl)(Cl)Cl)c1ccc(Oc2ccc(C(F)(F)F)cc2Cl)cc1)c1ccccc1Cl
10,119 to 120,O=Cc1nn2c3c(cccc13)CCC2
11,139 to 141,COc1cc(OC)cc(-c2ccc(N(C)CCN(C)c3ccc(-c4cc(OC)cc(OC)c4)nc3)cn2)c1
12,247 to 251,COC(=O)c1ccc(NC(=O)c2ccc(-c3ccccc3)cc2)cc1
13,91 to 93,O=C1CC(ON(Cc2ccccc2)Cc2ccccc2)C(=O)N1c1ccccc1 (stereo not given)
14,125 to 127,CN(N)c1cnn(-c2cccc(C(F)(F)F)c2)c(=O)c1
15,202 to 204,CC1(C)OCC(CCn2cnc3c(N)nc(N)nc32)CO1
16,149 to 151,CC(C)(C)c1cc(C2=NOC(CC(=O)Nc3ccc([N+](=O)[O-])cc3)C2)cc(C(C)(C)C)c1O (stereo not given)
17,160 to 167,COc1cccc(CNc2nccc(-c3cc(N4CCN(CCCN5CCCC5)CC4)c4cc(OC)ccc4c3)n2)c1
18,310,N=C(N)N1CCc2[nH]cnc2C1
19,254 to 255,COc1ccc(NC(C)=C(C#N)C#N)cc1
20,98 to 100,CCNC(=O)c1c(Cl)cccc1[Si](C)(C)C(C)C
21,> 90,Cc1cc(CN(Cc2ccc(F)cc2)c2cc(-c3ccc(C(F)(F)F)cc3)nn2C)cc(C)c1OC(C)(C)C(=O)O
22,117 to 118,O=C(O)CCCCCCCCCCC(=O)CCC(=O)O
23,240 to 242,Cc1ccc(CSc2nc(N)nc3nc[nH]c23)cc1
24,71 to 76,O=C(C=C(c1cc(Cl)cc(Cl)c1)C(F)(F)F)c1ccc(C(=O)Nc2ncc(Cl)cn2)cc1

row,melting point [°C],Compound
1,83.5 to 84,O=CC1=C(Cl)c2cccc(Cl)c2CC1
2,84 to 85,O=Cc1cc(Br)c(OCCBr)c(Br)c1
3,129 to 130,CC(=O)Nc1cc(N2CCN(C(=O)OC(C)(C)C)CC2)ccc1S(=O)(=O)c1ccccc1
4,126 to 128,CON1C(C)(C)CC(OC(=O)c2cc(C(C)(C)C)c(O)c(C(C)(C)C)c2)CC1(C)C
5,115,CCc1nc(-n2ccnc2)c2ccccc2c1Cl
6,102 to 104,BrCCCCn1c2ccccc2c2ccccc21
7,243 to 245,CCCn1c(=O)c2c(nc(C=Cc3cc(OC)c(OC)c(OC)c3S(N)(=O)=O)n2C)n(CCC)c1=O
8,226 to 228,O=c1c2ncn(COCCO)c2nc2[nH]c(-c3ccc(Cl)s3)cn12
9,76.6 to 77.4,CC1(C)CC(=O)C2C3CCCCC3C2(C)C1 (stereo not given)
10,117 to 118,COC(=O)CCc1ncc2oc(C(=O)OC)c(O)c2c1C(=O)OC
11,134 to 136,CCOC(=O)c1cnc(CC)nc1NCc1ccc(-c2ccccc2-c2nnnn2C(c2ccccc2)(c2ccccc2)c2ccccc2)cc1
12,210 to 212,CC(C)c1cccc2c1C(=O)N(COC(=O)c1c(Cl)ccc(OCC(=O)O)c1Cl)S2(=O)=O
13,75 to 76,O=C1OC[C@@H](c2ccccc2)N[C@H]1Cc1ccccc1
14,190 to 192,O=C(CCN1CCC(C(O)(c2ccc(F)cc2)c2ccc(F)cc2)CC1)Nc1ccccc1
15,142 to 145,CCCCCCCCCCCCCCC(=O)Nc1ccn(C2OC(CO)C(O)C2O)c(=O)n1 (stereo not given)
16,96 to 97,Cc1nnc(-c2ccc3occ(-c4ccc(SC(C)C)cc4)c3c2)o1
17,298 to 299,CCOCCn1cc2c(C3C(=O)Nc4ccc(Cl)cc43)nc(NCc3ccncc3)nc2n1 (stereo not given)
18,148 to 149,CC(=O)N1CCN=C1Nc1cc(C)nn1Cc1ccccc1
19,220 to 221,CN(c1cc2ccccc2s1)c1nc(=O)c2cccnc2s1
20,146 to 147,C=Cc1ccc(CN2C(=O)c3ccccc3C2=O)c2ccccc12
21,75,O=C(O)C(O)c1cccs1 (stereo not given)
22,194 to 196,COc1c(N2CC3CC3(CN)C2)c(F)cc2c(=O)c(C(=O)O)cn(C3CC3)c12 (stereo not given)
23,218 to 220,N#CC1=C(C#N)Sc2nc3cc(C#N)ccc3nc2S1
24,163 to 164,CC(C)COc1c(-c2ccc(S(N)(=O)=O)c(F)c2)cnn(CC(F)(F)F)c1=O

row,melting point [°C],Compound
1,56 to 58,OCCCCCCCCCCCOc1ccccc1
2,267,O=c1c2ccsc2ccn2ccnc12
3,161 to 163,CCOC(=O)c1nocc1Cn1nnnc1-c1cccc(Cl)c1Cl
4,61 to 62,O=C(Cc1ccccc1)c1cccnc1
5,225 to 227,CC(C)(C)OC(=O)N[C@@H](Cc1ccccc1)[C@@H](O)[C@@H](NCc1cccc2ccccc12)C(=O)O
6,37 to 39,CC(O)COc1ccc(Oc2cccc(F)c2)cc1 (stereo not given)
7,149,COc1cc(Nc2nccc(Oc3ccccc3)n2)cc(OC)c1OC
8,136 to 138,CCOC(=O)c1nc(NC)sc1-c1ccncc1
9,229 to 230,N#Cc1cccc(NC(=O)c2cc(-c3ccc(F)cc3F)ccc2O)c1
10,154 to 156,Nc1ccc(Cc2ccc(C3(c4ccc(Cc5ccc(N)cc5)cc4)CCCCC3)cc2)cc1
11,166 to 170,COc1ccc(C(N2CCN(c3ncccn3)CC2)N2CCCC2=O)cc1 (stereo not given)
12,69,CN1CCC(c2c[nH]c3ccc(C(=O)Cc4ccccc4)cc23)CC1
13,94 to 96,CON=C(C)C1=CCCN(O)C1
14,152 to 154,O=S(=O)(Nc1ccc(C2COc3cc(O)c(O)cc3C2)cc1)c1ccccc1 (stereo not given)
15,141 to 143,O=S1(=O)NCN(C2CCCCCCC2)c2cc(Cl)ccc21
16,139 to 140,CC(=O)SCC(Cc1ccccc1)C(=O)Nc1ccc(C(=O)OCc2ccccc2)cc1 (stereo not given)
17,193 to 195,CC(C)Cn1c(=O)c(-c2c(Cl)cccc2Cl)cc2cnc(N)nc21
18,126,CC12CC3CC(C1)CC(CC(O)C(c1cccc(Cl)c1)n1ccnc1)(C3)C2 (stereo not given)
19,117 to 120,CCCc1c(OCc2ccc(C(=O)NC(C)CCCc3cccnc3)cc2)ccc(C(C)=O)c1O (stereo not given)
20,99 to 102,O=C(CCCC(Cl)c1ccc(Cl)cc1)Nc1ccccc1 (stereo not given)
21,295 to 297,CC(=O)NCCNC1=NS(=O)(=O)c2cc(Cl)ccc2N1
22,206 to 210,COc1cccc(CNC(=O)c2cc3ccccc3c(=O)[nH]2)c1
23,174 to 180,CC(C)c1ccc(-n2c(CC(=O)O)c(C(=O)O)c3cc(Oc4ccc(Cl)cc4)ccc32)cc1
24,211,CN(C)S(=O)(=O)N[C@@H](Cc1ccc(Nc2nccc3cnccc23)cc1)C(=O)O

row,melting point [°C],Compound
1,89 to 90,CCCCCCCCCCC1COc2c(C(=O)OCC)sc(C(=O)OCC)c2O1 (stereo not given)
2,94 to 99,Fc1ccccc1CC[C@H]1CNCCN1
3,218 to 223,O=C(C#Cc1ccc(C(F)(F)F)cc1Cl)Nc1ccc2oc(CN3CCCC3)nc2c1
4,174,CC1=C(C(=O)OC2CCCC2)C(c2cccc([N+](=O)[O-])c2)C([N+](=O)[O-])=C(C)N1 (stereo not given)
5,205 to 207,CC(C)(C)c1csc(-c2cc3cc(CSc4ccccc4C(=O)O)ccc3o2)n1
6,69 to 70,CCCCCCCCC1=C(Cl)C(=O)c2ccccc2C1=O
7,217 to 218,O=C(N1CCCC1)N1Cc2c(-c3ccc(F)cc3)ncn2-c2ccccc21
8,60 to 63,CS(=O)(=O)c1ccc(-c2cc(C(=O)CCCO)nn2-c2ccc(C(F)(F)F)cc2)cc1
9,87,CC(=O)Nc1cccc(C)n1
10,181 to 182,Oc1ccc(-c2c3ccccc3c(Br)c3sc4ccccc4c23)cc1O
11,143,Cc1ccc(S(=O)(=O)N2CCCC2c2ccccc2F)cc1 (racemic)
12,223,O=C(Nc1cc2cn[nH]c2cc1Cl)c1ccccc1NCc1ccncc1
13,250 to 255,CC(=O)c1c(-c2ccncc2)[nH]c(-c2ccncc2)c1C(F)(F)F
14,101 to 108,CC(C)N(C[C@H](O)[C@H](Cc1ccccc1)NC(=O)[C@H](CC(N)=O)NCc1ccccn1)NC(=O)OC(C)(C)C
15,117 to 120,COc1cc(C=O)ccc1OCC(=O)NCCO[N+](=O)[O-]
16,219 to 221,Cc1nc2c(N[C@@H]3c4ccccc4C[C@H]3O)cc(C(=O)N(C)C)cc2n1C (relative stereo)
17,109 to 111,O=C(c1ccc(O)cc1O)c1ccccc1F
18,54 to 56,C[C@H]1Cc2cccc3sc(=O)n(c23)C1
19,194 to 195,NC(=O)[C@H](NCc1ccccc1)[C@@H]1CSC(=O)N1Cc1ccccc1
20,231,Cc1cc(-c2cc(C(F)(F)F)n3ncc(-c4ccnc(CO)c4)c3n2)ccc1C(F)(F)F
21,90 to 91.5,Cc1nc(-c2cccc(I)c2)no1
22,115 to 117,NC1CCN(c2ccc([N+](=O)[O-])cn2)CC1
23,58 to 59,CCCCCCCCCCCCCCCCCCOC(=O)CCc1cc(C)c(O)c(C(C)(C)C)c1

row,Compound,melting point [°C]
1,CCCOC(=O)c1ccc(C#CC2(O)CN3CCC2CC3)cc1O (stereo not given),173 to 175
2,Cc1cccc(NC(=O)NC2N=C(c3ccccc3F)c3ccccc3N(Cc3ccc4ccccc4n3)C2=O)c1 (racemic),224 to 225
3,CC1C(=O)NC(=O)NC1=O,200 to 215
4,CCN1C(=O)N(SC(Cl)(Cl)Cl)C(=O)C1(C)C,141 to 142
5,OC(CNC1CC1)c1ccc(Br)cc1 (stereo not given),105 to 107
